Source: article PMC12040169 (PLOS Biology, 2025)

Assay: in vitro
Conditions: human, hela cells, % viability

Compared with `Cc1cc(C2CCCN2C(=O)c2cnn3c(C)cc(C)nc23)on1` (stereo not shown) [CBK305634], `Cc1cc(C)n(CC(C)NC(=O)N2CCC(Oc3cccnc3)C2)n1` (stereo not shown) [CBK305342] is lower in viability at 28.5 h, 10 µM: 109% for the first, 92.1% for the second.

Going from `CC(C)NC(=O)Nc1ccc(C(=O)N(CCC#N)C(C)C2CC2)cc1` (stereo not shown) [CBK305312] to `COc1ccc(C(=O)Nc2cnn(CCCC(=O)O)c2)cc1` [CBK270052], the viability at 28.5 h, 10 µM falls from 110% to 89.7%.

Going from `Cc1cc(Nc2ccccc2C)c2cc(C(=O)O)ccc2n1` [CBK269458C] to `Cc1nc2cc(C(=O)N3CCC(c4ccccc4)C3)ccc2n1C` (stereo not shown) [CBK281841], the viability at 28.5 h, 10 µM falls from 103% to 66.5%.

Going from `COc1cc(/C=N/n2c(S)nnc2C(F)(F)F)cc(Br)c1O` [CBK265321] to `CCOC(=O)c1sc(Sc2nnc(C(F)(F)F)n2C)c2c1CC(C)(C)CC2=O` [CBK005649], the viability at 28.5 h, 10 µM rises from 74.2% to 101%.

First: CCC(c1ccc2c(c1)CCO2)N1CCN(Cc2nc(C)no2)CC1 (stereo not shown) [CBK304237]
Second: Cc1cc(CN2CCC(N(C)Cc3nnc(C)n3C)C2)no1 (stereo not shown) [CBK305088]
The viability at 28.5 h, 10 µM of the first is lower: 90.3% for the first, 96.6% for the second.

First: Cc1cccc(-n2ncc3c(NCCCN4CCOCC4)ncnc32)c1 [CBK265710]
Second: O=C(NCCN1CCOCC1)c1cc(-n2cnnc2)ccc1Cl [CBK268023]
The viability at 28.5 h, 10 µM of the first is lower: 91.2% for the first, 97.1% for the second.

Compared with `CCC(NC(=O)Nc1cc(N2CCOCC2)ccc1Cl)c1cnn(C)c1` (stereo not shown) [CBK306844], `CC(C)[C@H](CO)Nc1nc(-c2ccc(N3CCOCC3)cc2)cn2ccnc12` [CBK066151] is lower in viability at 28.5 h, 10 µM: 114% for the first, 108% for the second.

Compared with `Clc1ccc(Nc2ncnc3ccccc23)cc1` [CBK072625], `O=S(=O)(Cc1ccc(Cl)cc1)Nc1cccc2[nH]ccc12` [CBK153531] is higher in viability at 28.5 h, 10 µM: 86.1% for the first, 99.5% for the second.

Going from `O=S(=O)(NCCOCc1ccccc1)c1ccc2c(c1)Cc1ccccc1-2` [CBK266032] to `COc1ccc(S(=O)(=O)NCCO)cc1-c1nnc2c3ccccc3c(C)nn12` [CBK266933], the viability at 28.5 h, 10 µM falls from 101% to 91.9%.

Going from `Cc1cc(NC(=O)CN2CCC(CNc3ncccc3C#N)C2)on1` (stereo not shown) [CBK306127] to `CCOC(=O)C1CCN(CC(=O)Nc2ccc(S(N)(=O)=O)cc2)CC1` [CBK266118], the viability at 28.5 h, 10 µM rises from 87.8% to 94%.

Going from `Cc1sc2[nH]c(CCC(=O)N3CCCC(C)CC3)nc(=O)c2c1C` (stereo not shown) [CBK305807] to `CCCOC(=O)Cn1cnc2sc(C)c(C)c2c1=O` [CBK304371], the viability at 28.5 h, 10 µM falls from 103% to 88.9%.

Compared with `COc1ccccc1Cc1cccc(C2CCCN2C(=O)c2ccc(F)cc2)n1` (stereo not shown) [CBK286239], `O=C(CSCc1ccc(C(=O)O)cc1)Nc1ccc2ccccc2c1` [CBK299833] is lower in viability at 28.5 h, 10 µM: 99.1% for the first, 76.1% for the second.

First: COc1ccc(-n2ncc(-c3ccc(Br)cc3F)n2)cc1OC [CBK112915]
Second: COc1ccccc1-c1cnc(N)c(N[C@@H](C)c2ccccc2)n1 [CBK063721]
The viability at 28.5 h, 10 µM of the first is lower: 96.9% for the first, 107% for the second.

Compared with `CN(Cc1cc(C(C)(C)C)c(O)c(C(C)(C)C)c1)Cc1cc(C(C)(C)C)c(O)c(C(C)(C)C)c1` [CBK261980], `Cc1cc(CN(C)Cc2ccc3c(c2)n(C)c(=O)n3C)n[nH]1` [CBK281705] is higher in viability at 28.5 h, 10 µM: 97% for the first, 101% for the second.

Compared with `Cn1cc(CN2C[C@H]3CN(C(=O)C4CCC4)C[C@@]3(C(=O)O)C2)cc1C#N` [CBK307105], `O=C(CSc1nnc(-c2ccco2)o1)N1CCN(CC(=O)N2CCCC2)CC1` [CBK295136] is higher in viability at 28.5 h, 10 µM: 101% for the first, 111% for the second.

Going from `O=C1CSC(c2ccc(F)cc2Cl)c2c[nH]nc2N1` (stereo not shown) [CBK287935] to `O=C1Nc2ccc(Br)cc2C(=O)N2CCNC[C@H]12` [CBK289583], the viability at 28.5 h, 10 µM falls from 91.4% to 85.1%.

Compared with `Cc1nn(C)c2ncc(S(=O)(=O)Nc3cc(C(N)=O)ccc3Cl)cc12` [CBK306104], `Cc1c(Cl)cccc1S(=O)(=O)Nc1c(C(=O)N2CCOCC2)[nH]c2ccccc12` [CBK050076] is higher in viability at 28.5 h, 10 µM: 70% for the first, 109% for the second.

Going from `Cn1ccc(CNCc2c(Br)cc(F)c(F)c2N2CCCCC2)n1` [CBK304763] to `Cc1nn(C)c(N2CCNCC2)c1NC(=O)COc1ccccc1` [CBK050249T], the viability at 28.5 h, 10 µM falls from 105% to 103%.

Compared with `CN(C)Cc1c(O)ccc2occ(C(O)c3ccccc3)c12` (stereo not shown) [CBK261313], `O=C(NCc1ccc2occc2c1)C1(c2ccccc2)CCCC1` [CBK149525] is higher in viability at 28.5 h, 10 µM: 104% for the first, 116% for the second.

First: C[C@H](c1ccccc1)N1C(=O)[C@@H]2CN(C(=O)CC(C)(C)C)CCN2C1=O [CBK289638]
Second: CC(=O)Nc1ccc(S(=O)(=O)N2CCN(C/C=C/c3ccccc3)CC2)cc1 [CBK261545]
The viability at 28.5 h, 10 µM of the first is lower: 89.5% for the first, 114% for the second.

First: CCc1c(Cc2[nH]c(C)c(C(C)=O)c2C)[nH]c(C(=O)O)c1C [CBK286717]
Second: CCOC(=O)c1[nH]c2c([N+](=O)[O-])cccc2c1O [CBK115315]
The viability at 28.5 h, 10 µM of the first is higher: 91.3% for the first, 88.1% for the second.

Compared with `Nc1nnc(SC/C=C/CSc2nnc(N)s2)s1` [CBK263092], `CCSc1nnc2c(n1)OC(C)Nc1ccccc1-2` (stereo not shown) [CBK025684] is higher in viability at 28.5 h, 10 µM: 90.3% for the first, 102% for the second.

Going from `O=C(/C=C/c1cn([C@H]2C[C@@H](O)[C@@H](CO)O2)c(=O)[nH]c1=O)ON1C(=O)CCC1=O` [CBK201188] to `CN(C)C(=O)Cn1nc(-c2cc3c(s2)CCCC3)oc1=O` [CBK283905], the viability at 28.5 h, 10 µM falls from 99.3% to 98%.

Going from `S=C(NCc1ccc(Cl)c(Cl)c1)Nc1ccncc1` [CBK016649] to `CCC(=O)Nc1ccc2oc(-c3cccc(C)c3)nc2c1` [CBK263065], the viability at 28.5 h, 10 µM rises from 84.9% to 89.6%.

First: CS(=O)(=O)N1CC2(CCN(CCCOc3ccccc3)CC2)c2ccccc21 [CBK115457T]
Second: CNC(=O)C1(Cc2ccccc2-c2ccccc2)CCN(C(=O)Cc2ccc(C)cc2)CC1 [CBK286274]
The viability at 28.5 h, 10 µM of the first is higher: 106% for the first, 88.4% for the second.

First: Cn1nc(C(C)(C)C)cc1C(=O)N1CCNC(=O)C1Cc1ccc(-c2cccs2)cc1 (stereo not shown) [CBK285810]
Second: O=c1cc(-c2ccccc2)nc(SCc2nc(-c3cccs3)no2)[nH]1 [CBK268416]
The viability at 28.5 h, 10 µM of the first is lower: 92.2% for the first, 107% for the second.

First: S=C(Nc1ccccc1)N1CCCCC1CN1CCCCC1 (stereo not shown) [CBK006196]
Second: Nc1cccc(-c2cn(C[C@H]3CC4CCN3C[C@@H]4C(=O)NC3CCCCC3)nn2)c1 (stereo partly shown) [CBK289083]
The viability at 28.5 h, 10 µM of the first is higher: 112% for the first, 84.2% for the second.

First: CN(C)c1cccc(-c2nc(-c3ccc(C#N)cc3)cnc2N)c1 [CBK064049]
Second: COc1ccc2[nH]cc(CCNC(=O)c3ccc(-c4cccc(N(C)C)c4)nc3N(C)C(C)=O)c2c1 [CBK076589]
The viability at 28.5 h, 10 µM of the first is lower: 91.5% for the first, 101% for the second.

First: Cc1nnc2n1CCN(CC1CCCCO1)C2 (stereo not shown) [CBK304267]
Second: Cc1nc([N+](=O)[O-])c(N2CCN(C)CC2)n1Cc1ccccc1 [CBK261421]
The viability at 28.5 h, 10 µM of the first is higher: 105% for the first, 100% for the second.

First: CCN(CC(=O)N1CCN(c2cc(Cl)ccc2C)CC1)S(=O)(=O)c1ccc2ccccc2c1 [CBK268827]
Second: O=C(c1cccc(NS(=O)(=O)Cc2ccccc2)c1)N1CCOCC1 [CBK038991]
The viability at 28.5 h, 10 µM of the first is higher: 92.8% for the first, 91% for the second.

Going from `COc1ccc(NC(=O)CCC(=O)O)c(OC)c1` [CBK265451] to `Cc1ccc(C2=NN(C(=O)CCC(=O)O)C(c3ccc4nccnc4c3)C2)cc1` (stereo not shown) [CBK287802], the viability at 28.5 h, 10 µM rises from 104% to 109%.

Going from `NCCNC(=O)c1ccc(-c2cccc(C(F)(F)F)c2)o1` [CBK115927C] to `CCOC(=O)c1c(N)n(-c2cccc(C(F)(F)F)c2)c2nc3ccccc3nc12` [CBK264977], the viability at 28.5 h, 10 µM falls from 104% to 95.6%.

First: c1ccc(CSc2nnc3[nH]c4ccccc4n23)cc1 [CBK267841]
Second: c1ccc(Cn2ccc3c(N4CCNCC4)nccc32)cc1 [CBK051672C]
The viability at 28.5 h, 10 µM of the first is higher: 91.9% for the first, 87.9% for the second.

Going from `N#CC(C(N)=O)C(c1ccc(Br)cc1)c1c(-c2ccccc2)nn(-c2nc(-c3ccccc3)cs2)c1O` (stereo not shown) [CBK262697] to `O=C(Nc1cccc(C(=O)O)c1)/C(=C\c1ccco1)NC(=O)c1ccc(Br)cc1` [CBK263707], the viability at 28.5 h, 10 µM falls from 107% to 91.3%.

`COc1n[nH]c(CO)c1Cc1c(Cl)cccc1Cl` [CBK092283T] and `CCC(C)NC1=NC(=O)C(CC(=O)Nc2ccccc2Cl)S1` (stereo not shown) [CBK059133T] are the same in viability at 28.5 h, 10 µM: 97.3% for the first, 97.3% for the second.

Going from `Cn1cncc1C(=O)N1CCc2ccccc21` [CBK200412] to `CCCCN1CCC(C(=O)Oc2ccc(OC)c3ccccc23)CC1` [CBK122682], the viability at 28.5 h, 10 µM rises from 86.7% to 97.2%.

First: Cn1c(C(N)=O)cc(=O)n1-c1ccc([N+](=O)[O-])cc1 [CBK015873]
Second: COc1ccc([N+](=O)[O-])cc1N1CCN(C(=O)OC(C)(C)C)CC1 [CBK003504]
The viability at 28.5 h, 10 µM of the first is higher: 101% for the first, 92.3% for the second.

First: Cc1cccc2cc(CN(Cc3ccco3)C(=O)C3CCCCC3)c(O)nc12 [CBK269178]
Second: COc1cccc(C(=O)Nc2cc(C)c3c(=O)oc4ccccc4c3n2)c1OC [CBK287437]
The viability at 28.5 h, 10 µM of the first is lower: 102% for the first, 106% for the second.

First: CN1CCN(C(=O)CC[C@@H]2CNC(=O)[C@@H]3C[C@H](NC(=O)c4cccs4)CN23)CC1 [CBK289013]
Second: CC(C)n1nnnc1SCCC(=O)N1CCN(c2ccc(F)cc2)CC1 [CBK304602]
The viability at 28.5 h, 10 µM of the first is higher: 124% for the first, 95.5% for the second.

Going from `COc1ccc(S(=O)(=O)N(C)CC(=O)Nc2ccc(S(N)(=O)=O)cc2)cc1C` [CBK267333] to `CC(C)COc1ccc(-c2nonc2NC(=O)c2ccco2)cc1` [CBK299802], the viability at 28.5 h, 10 µM rises from 93.7% to 99.1%.

Compared with `COC(=O)CCCCCSc1nc2ccc(O)c([N+](=O)[O-])c2s1` [CBK005867], `COC(=O)CCC1(C)CN(C)CCC1=O` (stereo not shown) [CBK028494] is lower in viability at 28.5 h, 10 µM: 106% for the first, 85% for the second.

First: COc1ccc2c(c1)C1(CC(=O)N(Cc3cccnc3)C1=O)C(=O)N2C (stereo not shown) [CBK075236]
Second: CC1CCc2c(sc(NC(=O)c3cc(-c4cccnc4)nc4ccc(Cl)cc34)c2C(N)=O)C1 (stereo not shown) [CBK267762]
The viability at 28.5 h, 10 µM of the first is lower: 103% for the first, 104% for the second.

First: COc1ncc(-c2nc(NC(=O)Cc3cc(F)c(F)c(F)c3)cnc2-c2cccc(C)c2)c(OC)n1 [CBK036717]
Second: CS(=O)(=O)Nc1ccccc1C(=O)NCc1ccccn1 [CBK268494]
The viability at 28.5 h, 10 µM of the first is lower: 96.4% for the first, 106% for the second.

Going from `O=C(O)C1CCN(C(=O)NCc2ccc(F)cc2)CC1` [CBK156070] to `CC(C)(c1ccccc1)c1ccc(OCCNCCN)cc1` [CBK265102], the viability at 28.5 h, 10 µM falls from 117% to 103%.
